In ChEMBL document CHEMBL1134093, “Amidino benzimidazole inhibitors of bacterial two-component systems” (Bioorg Med Chem Lett, 2001) one finds IC50 and MIC data, which are given here for 21 molecules.

In brackets after ≈: the same amount, converted by molar mass. A value given as a limit tells only on which side of the number the result lay.

The target in experiment [1] is T1, KinA/Spo0F (sporulation kinase A/sporulation initiation phosphotransferase F) (Bacillus subtilis (strain 168), UniProt P06628+P16497).
T1 sequence (P06628 whole entry): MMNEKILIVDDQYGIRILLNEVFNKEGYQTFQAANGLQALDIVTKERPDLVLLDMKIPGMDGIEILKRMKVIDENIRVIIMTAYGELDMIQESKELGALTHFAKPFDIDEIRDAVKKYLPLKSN
T1 sequence (P16497 whole entry): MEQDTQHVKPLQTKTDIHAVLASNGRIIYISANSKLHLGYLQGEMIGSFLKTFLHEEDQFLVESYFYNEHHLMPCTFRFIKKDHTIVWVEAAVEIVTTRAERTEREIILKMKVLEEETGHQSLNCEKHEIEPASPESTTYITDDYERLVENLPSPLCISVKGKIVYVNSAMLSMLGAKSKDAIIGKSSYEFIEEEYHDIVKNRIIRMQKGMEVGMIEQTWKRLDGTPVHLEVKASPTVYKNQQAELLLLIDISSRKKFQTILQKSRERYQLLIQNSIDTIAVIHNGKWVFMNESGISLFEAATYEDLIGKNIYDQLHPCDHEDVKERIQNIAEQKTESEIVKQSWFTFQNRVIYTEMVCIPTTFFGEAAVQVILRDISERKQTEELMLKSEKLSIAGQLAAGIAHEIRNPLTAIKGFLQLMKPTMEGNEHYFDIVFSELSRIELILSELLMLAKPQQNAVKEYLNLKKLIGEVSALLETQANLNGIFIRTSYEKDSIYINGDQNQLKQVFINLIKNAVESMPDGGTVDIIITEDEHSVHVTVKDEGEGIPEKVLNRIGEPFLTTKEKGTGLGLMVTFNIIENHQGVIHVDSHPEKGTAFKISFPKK
Briefly: Inhibition of KinA/Sp0F system two component (TCS) from Bacillus subtilis. Format: protein assay.

Experiment [2] relates to Staphylococcus aureus. Briefly: Inhibition of growth of Staphylococcus aureus ATCC 29213. Format: functional.
The subject of experiment [3] is Staphylococcus aureus. Description: Inhibition of growth of methicillin resistant Staphylococcus aureus MRSA OC 2089. Format: functional.
Experiment [4] concerns Enterococcus faecalis. Briefly: Inhibition of growth of Enterococcus faecalis OC 3041. The class given is functional.
The subject of experiment [5] is Enterococcus faecium. Description: Inhibition of growth of Vancomycin resistant Enterococcus faecium (VRE) OC 3312.
In experiment [6] the target is T1, KinA/Spo0F (sporulation kinase A/sporulation initiation phosphotransferase F). Briefly: Inhibition of KinA/Sp0F system two component system (TCS) from Bacillus subtilis. Format: protein assay.
For experiment [7], the system named is Staphylococcus aureus. Briefly: Compound was evaluated for inhibition of growth of Staphylococcus aureus ATCC 29213. Format: functional.
The subject of experiment [8] is Staphylococcus aureus. Description: Compound was evaluated for inhibition of growth of methicillin resistant Staphylococcus aureus MRSA OC 2089. The class given is functional.

Take `N=C(N)c1ccc2nc(-c3ccc(-c4ccccc4)cc3)[nH]c2c1`: in experiment [1], the IC50 (commonly the point on the concentration scale where inhibition reaches its midpoint) amounted to 88 µM. In other words, the double-digit micromolar range.
In the case of `CC(C)(C)c1cccc(-c2nc3cc(C(=N)N)ccc3[nH]2)c1O`, the MIC (usually the lowest concentration that inhibits growth of the organism) in experiment [2] stood at 1 µg/mL (≈ 3.24 µM); in experiment [3], 1 µg/mL (≈ 3.24 µM); in experiment [4], 2 µg/mL (≈ 6.49 µM); in experiment [5] it was 2 µg/mL (≈ 6.49 µM). In experiment [1], this molecule had an IC50 of 6 µM.
`N=C(N)c1ccc(Oc2ccc(-c3cc4ccc(C(=N)N)cc4[nH]3)cc2)cc1` came in with an IC50 in experiment [6] of 31 µM. Moreover, the minimal inhibitory concentration (MIC) in experiment [2] is 1 µg/mL (≈ 2.71 µM); in experiment [3], 0.5 µg/mL (≈ 1.35 µM); in experiment [4] it was 1 µg/mL (≈ 2.71 µM); in experiment [5], 0.5 µg/mL (≈ 1.35 µM).
In experiment [1], `CC(C)(N)CNC(=O)c1ccc2[nH]c(-c3cc(C(C)(C)C)cc(C(C)(C)C)c3O)nc2c1` came in with an IC50 of 10 µM. This lies in the double-digit micromolar range.
The same measure, in the same setting: with `N=C(N)c1ccc2oc(-c3ccc(Oc4ccccc4)cc3)nc2c1` the figure was 138 µM.
The same measure, in the same setting: under `N=C(N)c1ccc2nc(-c3ccc(Oc4ccccc4)cc3)oc2c1` stands 49 µM.
For `CC(C)(C)c1cc(-c2nc3cc(C4=NCCN4)ccc3[nH]2)c(O)c(C(C)(C)C)c1`, the MIC in experiment [2], in experiment [3], in experiment [4] and in experiment [5] was 1 µg/mL (≈ 2.56 µM) in each case. In experiment [1], the IC50 was 10 µM.
Turning to `CC(C)(C)c1cc(-c2nc3ccc(C(=N)N)cc3o2)c(O)c(C(C)(C)C)c1`, the MIC was 2 µg/mL (≈ 5.47 µM) in experiment [2], 2 µg/mL (≈ 5.47 µM) in experiment [3], 2 µg/mL (≈ 5.47 µM) in experiment [4] and 1 µg/mL (≈ 2.74 µM) in experiment [5]. In experiment [1], this molecule had an IC50 of 15.4 µM.
Regarding `CC(C)(C)c1cc(-c2nc3cc(C(=N)N)ccc3o2)c(O)c(C(C)(C)C)c1`, the MIC in experiment [2], in experiment [3], in experiment [4] and in experiment [5] was 1 µg/mL (≈ 2.74 µM) throughout. Moreover, in experiment [1], the IC50 is 14 µM.
As to `Cn1c(-c2ccc(Oc3ccccc3)cc2)nc2cc(C(=N)N)ccc21`, the MIC in experiment [2] is 16 µg/mL (≈ 46.7 µM); in experiment [3], 32 µg/mL (≈ 93.5 µM); in experiment [4] it was greater than 64 µg/mL; in experiment [5], 32 µg/mL (≈ 93.5 µM). This molecule also had an IC50 in experiment [1] of 44 µM.
As for `CC(C)(C)c1cc(-c2nc3cc(C(=N)N)ccc3[nH]2)cc(C(C)(C)C)c1`, the minimum inhibitory concentration (MIC) amounted to 2 µg/mL (≈ 5.74 µM) in experiment [2], 4 µg/mL (≈ 11.5 µM) in experiment [3], 4 µg/mL (≈ 11.5 µM) in experiment [4] and 4 µg/mL (≈ 11.5 µM) in experiment [5]. Further, in experiment [1], the IC50 stood at 25 µM.
In the case of `CC(C)(C)c1cccc(-c2nc3cc(C(=N)N)ccc3[nH]2)c1`, in experiment [1], the IC50 worked out at 163 µM.
In experiment [1], `COC(=O)c1ccc2[nH]c(-c3cc(C(C)(C)C)cc(C(C)(C)C)c3O)nc2c1` gave an IC50 of 380 µM.
As to `N=C(N)c1ccc2nc(-c3ccc(Oc4ccccc4)cc3)[nH]c2c1`, the MIC in experiment [7] came to 8 µg/mL (≈ 24.4 µM); in experiment [4] it was 16 µg/mL (≈ 48.7 µM); in experiment [8] it was 16 µg/mL (≈ 48.7 µM); in experiment [5] it was 16 µg/mL (≈ 48.7 µM).
Consider `CC(C)(C)c1cc(-c2nc3cc(C(=N)N)ccc3[nH]2)c(O)c(C(C)(C)C)c1`, for which the MIC was 1 µg/mL (≈ 2.74 µM) in experiment [2], 2 µg/mL (≈ 5.49 µM) in experiment [3], 2 µg/mL (≈ 5.49 µM) in experiment [4] and 1 µg/mL (≈ 2.74 µM) in experiment [5]. This molecule registered an IC50 in experiment [1] of 12 µM.
Turning to `CC(C)(C)c1ccc(O)c(-c2nc3cc(C(=N)N)ccc3[nH]2)c1`, the MIC in experiment [2] came out at 8 µg/mL (≈ 25.9 µM); in experiment [3] it was 8 µg/mL (≈ 25.9 µM); in experiment [4], 16 µg/mL (≈ 51.9 µM); in experiment [5] it was 16 µg/mL (≈ 51.9 µM).
On to `N=C(N)c1ccc2cc(-c3ccc(Oc4ccccc4)cc3)[nH]c2c1`, for which the MIC in experiment [2], in experiment [3], in experiment [4] and in experiment [5] was 4 µg/mL (≈ 12.2 µM) throughout. For the same molecule, the IC50 in experiment [1] came out at 7.7 µM.
As for `COc1c(-c2nc3cc(C(=N)N)ccc3[nH]2)cc(C(C)(C)C)cc1C(C)(C)C`, the MIC worked out at 4 µg/mL (≈ 10.6 µM) in experiment [2], 4 µg/mL (≈ 10.6 µM) in experiment [3], 8 µg/mL (≈ 21.1 µM) in experiment [4] and 4 µg/mL (≈ 10.6 µM) in experiment [5].
As to `N=C(N)c1ccc2[nH]c(-c3ccc(N(c4ccccc4)c4ccccc4)cc3)nc2c1`, the MIC in experiment [2] was 4 µg/mL (≈ 9.91 µM); in experiment [3], 16 µg/mL (≈ 39.7 µM); in experiment [4] it was 4 µg/mL (≈ 9.91 µM); in experiment [5], 4 µg/mL (≈ 9.91 µM). The IC50 in experiment [1] amounted to 17 µM.
Turning to `N=C(N)c1ccc2[nH]c(-c3ccccc3)nc2c1`, the IC50 in experiment [1] is greater than 500 µM.
As to `Cc1onc(-c2ccccc2)c1C(=O)N[C@@H]1C(=O)N2[C@@H]1SC(C)(C)[C@@H]2C(=O)O` [OXACILLIN], the MIC in experiment [2] was 0.25 µg/mL (≈ 0.623 µM); in experiment [3], greater than 64 µg/mL; in experiment [4], 16 µg/mL (≈ 39.9 µM); in experiment [5], greater than 64 µg/mL.
